From patent US4169096A, “Antibiotic compounds” (priority 1977, dated 1979)
Converted amounts (≈) assume the structure as drawn. Where two headings read alike, the source gives them in different places.

Assays:
[1] = test system: Escherichia coli Juhl A15119; test: MIC, serial two-fold agar dilution, aerobic bacteria; format: cell-based; details: JUHLA15119, Nutrient agar (Eiken), read-out: MIC
[2] = test system: Klebsiella pneumoniae A9678; test: as above; format: cell-based; details: Nutrient agar (Eiken), read-out: MIC
[3] = test system: Serratia marcescens A20019; test: as above; format: cell-based; details: Nutrient agar (Eiken), read-out: MIC
[4] = test system: Pseudomonas aeruginosa A9843; test: as above; format: cell-based; details: test medium not given
Proteus mirabilis A9554 = test: as above; format: cell-based; details: Nutrient agar (Eiken)
Proteus morganii A9553 = test: as above; format: cell-based; details: Morganella morganii, Nutrient agar (Eiken)
[5] = test system: Staphylococcus aureus 209P; test: as above; format: cell-based; details: Nutrient agar (Eiken)
[6] = test system: Staphylococcus aereus Smith; test: as above; format: cell-based; details: Nutrient agar (Eiken), read-out: MIC
[7] = test system: Staphylococcus aureus #52-34; test: as above; format: cell-based; details: Nutrient agar (Eiken), read-out: MIC
Sarcina lutea PCI-1001 = test: as above; format: cell-based; details: Micrococcus luteus, PCI1001; Nutrient agar (Eiken); read-out: MIC
Micrococcus flavus = test: as above; format: cell-based; details: Nutrient agar (Eiken), read-out: MIC
[8] = test system: Bacillus subtilis PCI-219; test: as above; format: cell-based; details: PCI219
[9] = test system: Streptococcus pyogenes A9604; test: as above; format: cell-based; details: GC medium (Eiken)
[10] = test system: Streptococcus pyogenes A20201; test: as above; format: cell-based; details: GC medium (Eiken)
[11] = test system: Neisseria meningitidis A20049; test: as above; format: cell-based; details: GC medium (Eiken), read-out: MIC
[12] = test system: Neisseria meningitidis A21496; test: as above; format: cell-based; details: GC medium (Eiken)
[13] = test system: Hemophilus influenzae A20188; test: as above; format: cell-based; details: Haemophilus influenzae, GC medium (Eiken)
C. perfringens A9635 [14] = test: microbe, parasite or virus in culture; format: cell-based, Clostridium perfringens
B. fragilis A20928-1 [15] = test: Inoculum size effect on MIC, GAM broth; format: cell-based; details: Bacteroides fragilis, A209281, read-out: MIC in GAM broth, inoculum size […] 10^6 cell/ml
C. perfringens A9635 [16] = test: microbe, parasite or virus in culture; format: cell-based; details: Clostridium perfringens, A9635, read-out: MIC in GAM broth, inoculum size […] 10^6 cell/ml
B. fragilis A20928-1 [17] = test: Bactericidal activity (MIC & MBC); format: cell-based; details: Bacteroides fragilis, A209281, inoculum size 2.8 × 10^6 cell/ml
C. perfringens A9635 [18] = test: microbe, parasite or virus in culture; format: cell-based; details: Clostridium perfringens, A9635, 18 h
S. pyogenes A20201 [19] = test: Bactericidal activity (MIC & MBC); format: cell-based; details: Streptococcus pyogenes, A20201, 18 h
C. perfringens A9635 [20] = test: animal or person; format: in vivo, mice; details: Clostridium perfringens, A9635, in Mus musculus, 120 h, read-out: PD50
S. pyogenes A20201 [21] = test: Systemic infection with S. pyogenes in mice; format: in vivo; details: Streptococcus pyogenes, A20201, 120 h, just before challenge, determined after 5 days, read-out: PD50
bacterial RNA polymerase = details: Antimicrobial Agents and Chemotherapy 1976, page 618; cited from earlier work
[22] = test system: Escherichia coli K-12 A9632; test: MIC, serial two-fold agar dilution, aerobic bacteria; details: K12A9632

`CC(/C=C/C(=O)C1=C(O)CNC1=O)=C\C(C)C1OC2(C)OC(C(=O)C3OC32C)C1C` (stereo not shown) [Tirandamycin, reference compound] showed an MIC [1] greater than 100 µg/mL, an MIC [2] greater than 100 µg/mL and an MIC [3] greater than 100 µg/mL. For the same compound, the MIC [4] was greater than 100 µg/mL, the MIC (Proteus mirabilis A9554) was greater than 100 µg/mL and the MIC (Proteus morganii A9553) was greater than 100 µg/mL. For the same compound, the MIC [5] was 100 µg/mL (≈ 240 µM), the MIC [6] was greater than 100 µg/mL and the MIC [7] was 50 µg/mL (≈ 120 µM). It also gave an MIC (Sarcina lutea PCI-1001) of 50 µg/mL (≈ 120 µM), an MIC (Micrococcus flavus) of 25 µg/mL (≈ 59.9 µM) and an MIC [8] of 3.1 µg/mL (≈ 7.43 µM). The MIC [9] was 0.8 µg/mL (≈ 1.92 µM), the MIC [10] was 0.8 µg/mL (≈ 1.92 µM) and the MIC [11] was 0.8 µg/mL (≈ 1.92 µM). For the same compound, the MIC [12] was 0.8 µg/mL (≈ 1.92 µM), the MIC [13] was 0.8 µg/mL (≈ 1.92 µM) and the MIC (C. perfringens A9635 [14]; Clostridium perfringens, A9635, read-out: MIC in GAM agar) was 0.8 µg/mL (≈ 1.92 µM). For the same compound, the “MIC in GAM agar” value (C. perfringens A9635 [14]; inoculum size 7 × 10^6 cell/ml) was 0.8 µg/mL (≈ 1.92 µM), the MIC (B. fragilis A20928-1 [15]) was 0.006 µg/mL (≈ 0.0144 µM) and the MIC (C. perfringens A9635 [16]) was 12.5 µg/mL (≈ 29.9 µM). The MIC (B. fragilis A20928-1 [17]; broth) was 0.025 µg/mL (≈ 0.0599 µM), the MBC (B. fragilis A20928-1 [17]; growth of less than 100 colonies per plate, 18 hours at 37° C.) was greater than 0.8 µg/mL and the MBC (C. perfringens A9635 [18]) was 3.1 µg/mL (≈ 7.43 µM). It also gave an MBC (S. pyogenes A20201 [19]) greater than 12.5 µg/mL, an ED50 (C. perfringens A9635 [20]; po) of 60 mg/kg and an ED50 (C. perfringens A9635 [20]; sc) of 17 mg/kg. For the same compound, the ED50 (S. pyogenes A20201 [21]; po, NA: no activity) was 50 mg/kg, the ED50 (S. pyogenes A20201 [21]; sc) was 9.7 mg/kg and the “inhibition of bacterial RNA polymerase” value (bacterial RNA polymerase) was “inhibitor of bacterial RNA polymerase in a manner similar to streptolydigin”. For the same compound, the MIC [22] was greater than 100 µg/mL.
